# From US20050002552A1, “Automated in vitro cellular imaging assays for micronuclei and other target objects” (Pfizer Inc, priority 2003, published 2005)
# Where two headings read alike, the source gives them in different places.
# Columns and labels:
# [1] = tested on: Chinese hamster ovary cells; conditions: cut-off two to three times the negative control value (1.1%); both wells, automated and manual scoring
# Excerpt: A small quantity of a discovery drug candidate will be added to each well (the amount will usually be in the range of from 0 micrograms to about 500 micrograms and often in the range of from 0 micrograms to about 100 micrograms), desirably in a carrier medium containing DMSO (dimethyl sulfoxide), ethanol, methanol, acetonitrile, and/or water.
# A mixture such as one containing amino acids (e.g., L-glutamine), serum (e.g., 5% fetal bovine serum), and glucose will be added to the wells to provide an aqueous growth medium for the cells. […] The presence of binucleated cells in the microwell at the end of the process is proof that nuclear division occurred in the presence of the discovery drug candidate.
# After the cells become attached to the plate bottom, a chemical stimulus (agent) such as a discovery drug candidate can be added to each well. […]
# If more than one micronuclei is found in a single cell, the cell is likely undergoing nuclear fragmentation as a result of apoptosis (programmed cell-death) and, accordingly, should be discarded from the final analysis. The micronuclei rate or frequency can be calculated as the number of micronucleated cells divided by the total number of nuclear division in a sample (the rate or frequency may be converted to a percentage by multiplying the rate or frequency by 100).
# [2] = tested on: Chinese hamster ovary cells; assay: In vitro micronucleus assay, non-Cytochalasin B protocol (mononucleated cells); conditions: cut-off double the DMSO value (micronuclei frequencies of 1.2% and higher are positive); manual or automated scoring; per run
# Description: Accordingly, the method of this invention was also used to determine micronuclei frequency in non-cytokinesis-blocked cell samples (i.e., cell samples that were not treated with Cytochalasin B or the like) and, therefore, which were mononucleated.
# In the second set of experiments, Chinese hamster ovary cells were used and the only difference in treatment and image acquisition protocol between runs in this set was the stimulus (i.e., chemical agent) with which the cells were incubated. Cytochalasin B was not used is this set of experiments (and, thus, the cells remained virtually all mononucleated throughout the experiment).
# [3] = tested on: Chinese hamster ovary cells; conditions: stated as known; cited from earlier work
smiles,measurement,setting,value
CO[C@@]12[C@H](COC(N)=O)C3=C(C(=O)C(C)=C(N)C3=O)N1C[C@@H]1N[C@@H]12 [Mitomycin C],Response call (clastogenic/aneugenic) against negative control,[1],positive response
same,Response call (clastogenic/aneugenic) against negative control,[2],positive
same,Known aneugenicity/clastogenicity (positive control),[3],aneugenic/clastogenic
